# “And” between values parts separate entries of the source, which are not always exact repeats. Equal entries are not always repeated.
# What was measured:
# Botrytis cinerea = test: Treatment of sweet peppers: wounded, inoculated with Botrytis cinerea, wound treated with antifungal composition (Example 10); format: in vivo; conditions: 400 ppm natamycin, 600 ppm fenpiclonil or both, 20° C.
# Method: Ten fresh, organic sweet peppers were used per treatment. The peel of each sweet pepper was wounded once using a cork borer according to the method described by de Lapeyre de Bellaire and Dubois (1987). Subsequently, each wound was inoculated with 10 μl of a Botrytis cinerea suspension containing 1×10^5 of spores/ml. After incubation for 3 hours at 20° C., each wound and the skin area of 0.5 cm around the wound was treated with in total 75 μl of a freshly prepared aqueous antifungal composition comprising either 400 ppm natamycin (DSM Food Specialties, Delft, The Netherlands), 600 ppm fenpiclonil or both. Each antifungal composition also comprised 3.2% (w/w) beeswax, 0.8% (w/w) glycerol, 0.7% (w/w) polyoxyethylene sorbitan monostearate (Tween 60), 0.2% (w/w) polyoxyethylene sorbitan monooleate (Tween 80), 0.05% (w/w) methylhydroxyethyl-cellulose (MHEC), 0.03% (w/w) anti-foaming agent, 0.02% (w/w) xanthan gum, 0.02% (w/w) citric acid, 0.01% (w/w) lactic acid and 0.01% potassium sorbate. A composition without natamycin or fenpiclonil was used as control.
# The treated sweet peppers were incubated in a closed box in the dark at 20° C. and assessed on mould growth during incubation. The antifungal activity (in %) of the individual and combined active ingredients was determined by calculating the reduction in mould growth observed on the sweet peppers treated with the antifungal composition in comparison to the mould growth on the sweet peppers treated with the control composition according to the Colby method (Colby, 1967) as described in Example 5.
# Penicillium italicum = test: Treatment of oranges: wounded, inoculated with Penicillium italicum, wound treated with antifungal composition (Examples 7-9); format: in vivo; conditions: 500 ppm natamycin, 400 ppm fenpiclonil or both, oranges, 20° C.
# Method: The expected antifungal activity (E in %) of the combined antifungal composition comprising both active ingredients was calculated according to the Colby equation (Colby, 1967): E=X+Y−[(X·Y)/100] wherein X and Y are the observed antifungal activities (in %) of the individual active ingredients X and Y, respectively.
# Eight fresh, organic oranges were used per treatment. Each orange was soaked in a 180 ppm hypochlorite solution for 10 minutes, then rinsed thoroughly with fresh tap water and dried. The peel of each disinfected orange was wounded once using a cork borer according to the method described by de Lapeyre de Bellaire and Dubois (1987). Subsequently, each wound was inoculated with 10 μl of a Penicillium italicum suspension containing 5×10^5 of spores/ml. After incubation for 3 hours at 20° C., each wound and the orange peel area of 1 cm around the wound was treated with in total […] of a freshly prepared aqueous antifungal composition comprising either 500 ppm natamycin (DSM Food Specialties, Delft, The Netherlands), 300 ppm fludioxonil or both. Each antifungal composition also comprised 3.2% (w/w) beeswax, 0.8% (w/w) glycerol, 0.7% (w/w) polyoxyethylene sorbitan monostearate (Tween 60), 0.1% (w/w) polyoxyethylene sorbitan monooleate (Tween 80), 0.05% (w/w) methylhydroxyethyl-cellulose (MHEC), 0.03% (w/w) anti-foaming agent, 0.02% (w/w) xanthan gum, 0.02% (w/w) citric acid, 0.01% (w/w) lactic acid and 0.01% potassium sorbate. A composition without natamycin or fludioxonil was used as control.
# The treated oranges were incubated in a closed box in the dark at 20° C. and assessed on mould growth during a 27-day incubation period.
# (§1) The experiment was conducted as described in Example 7, except for the fact that each wounded and inoculated orange was treated with 150 μl of a freshly prepared aqueous antifungal composition comprising either 250 ppm natamycin (DSM Food Specialties, Delft, The Netherlands), 100 ppm fludioxonil or both. During incubation, the treated oranges were assessed on mould growth according to the two methods described in Example 5.
# as §1, with “500” for “250”, “400” for “100”, “fenpiclonil” for “fludioxonil”, “a 23-day incubation period,” for “incubation,”
smiles,measurement,setting,value
"N#Cc1c[nH]cc1-c1cccc(Cl)c1Cl [Fenpiclonil, fenpiclonil]",Observed antifungal activity O (%),Botrytis cinerea; 47 days,0%
same,Observed antifungal activity O (%),Botrytis cinerea; 48 days,0%
same,Observed antifungal activity O (%),Botrytis cinerea; 49 days,0%
same,Observed antifungal activity O (%),Botrytis cinerea; 50 days,0%
same,Observed antifungal activity O (%),Penicillium italicum; 22-23 days,0%
same,Observed antifungal activity O (%),Penicillium italicum; 12 days,78%
same,Observed antifungal activity O (%),Penicillium italicum; 13 days,70%
same,Observed antifungal activity O (%),Penicillium italicum; 14 days,66%
same,Observed antifungal activity O (%),Penicillium italicum; 15 days,59%
same,Observed antifungal activity O (%),Penicillium italicum; 16 days,47%
same,Observed antifungal activity O (%),Penicillium italicum; 18 days,28%
same,Observed antifungal activity O (%),Penicillium italicum; 19 days,17%
same,Observed antifungal activity O (%),Penicillium italicum; 20 days,6%
same,Observed antifungal activity O (%),Penicillium italicum; 21 days,3%
same,Number of moulded oranges/total number of 8 oranges,Penicillium italicum; Day 14-15,6 and 6/8
same,Number of moulded oranges/total number of 8 oranges,Penicillium italicum; Day 16,8 and 8/8
same,Number of moulded oranges/total number of 8 oranges,Penicillium italicum; Day 18,8 and 8/8
same,Number of moulded oranges/total number of 8 oranges,Penicillium italicum; Day 19-23,8 and 8/8
